According to patent publication US20200253978A1, “HETEROCYCLICS AS INHIBITORS OF FIBROBLAST GROWTH FACTOR RECEPTOR” (ADVENT PHARMA CO. LTD., priority 2017, published 2020):

Legend:
[1] = target: T1, BaF3 cells expressing Tel-FGFR-1 and luciferase (Homo sapiens, UniProt P11362); test: BaF3 cellular growth inhibition assay, Tel-FGFR-1 and luciferase (Bright-Glo); type: cell-based; details: BaF3 Tel-FGFR-1 cells, 2 days incubation, 50% growth inhibition vs DMSO
T1 construct: Luciferase is co-expressed as a viability reporter and is not part of the key; P41212 (Transcription factor ETV6)
T1 sequence (P11362 478-767 limits assumed): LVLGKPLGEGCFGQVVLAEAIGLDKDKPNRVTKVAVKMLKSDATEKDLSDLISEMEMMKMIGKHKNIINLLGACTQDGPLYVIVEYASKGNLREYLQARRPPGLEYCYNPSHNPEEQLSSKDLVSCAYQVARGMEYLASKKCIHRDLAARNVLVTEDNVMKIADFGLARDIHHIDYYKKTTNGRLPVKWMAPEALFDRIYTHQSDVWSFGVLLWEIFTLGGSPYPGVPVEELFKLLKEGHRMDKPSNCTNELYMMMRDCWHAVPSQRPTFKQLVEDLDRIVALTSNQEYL
Description: (§1) Compounds' inhibitory activities against FGFR-4 or FGFR-1 were measured in BaF3 cells expressing Tel-FGFR-4 and luciferase or Tel-FGFR-1 and luciferase, whose growth was dependent on FGFR-4 or FGFR-1 kinase but independent of IL-3. The cells were plated in 384-well plates in RPMI1640 with 10% FBS. Compounds were added as 11-point dilutions. Cell viability was determined by Bright-Glo luciferase assay (Promega) after cells were incubated with compounds for 2 days. The IC50 value was determined as the concentration for 50% growth inhibition compared to DMSO treated cells (A: IC50<0.1 μM; B: IC50 between 0.1 μM and 1 μM; C: IC50 between 1 μM and 10 μM).

[2] = target: T2, BaF3 cells expressing Tel-FGFR-4 and luciferase (Homo sapiens, UniProt P22455); test: BaF3 cellular growth inhibition assay, Tel-FGFR-4 and luciferase (Bright-Glo); type: cell-based; details: BaF3 Tel-FGFR-4 cells, 2 days incubation, 50% growth inhibition vs DMSO
T2 construct: Luciferase is co-expressed as a viability reporter and is not part of the key; P41212 (Transcription factor ETV6)
T2 sequence (P22455 467-755 limits assumed): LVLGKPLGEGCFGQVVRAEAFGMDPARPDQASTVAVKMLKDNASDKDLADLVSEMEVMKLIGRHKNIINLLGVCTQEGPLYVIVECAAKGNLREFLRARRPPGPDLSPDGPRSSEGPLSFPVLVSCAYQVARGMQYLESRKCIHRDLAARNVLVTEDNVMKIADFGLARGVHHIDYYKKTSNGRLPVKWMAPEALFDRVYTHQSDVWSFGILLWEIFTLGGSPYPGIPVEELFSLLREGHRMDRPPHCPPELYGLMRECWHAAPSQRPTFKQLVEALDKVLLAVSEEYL
Description: as §1

SMILES | IC50 ([1]; numeric bounds) [nM] | IC50 [2] [nM] | IC50 ([1]; class symbols) [nM]
C=CC(=O)Nc1cc(N2CCN(CC)CC2)ccc1Nc1cc2cc(C(O)c3c(F)c(OC)cc(OC)c3F)oc2cn1 (racemic) [Example 5, (±)-N-(2-((2-((2,6-difluoro-3,5-dimethoxyphenyl)(hydroxy)methyl)furo[2,3-c]pyridin-5-yl)amino)-5-(4-ethylpiperazin-1-yl)phenyl)acrylamide] | > 10000 | < 100 | 
C=CC(=O)Nc1cc(N2CCN(CC)CC2)ccc1Nc1cc2cc(C(C)(O)c3c(F)c(OC)cc(OC)c3F)oc2cn1 (racemic) [Example 7, (±)-N-(2-((2-(1-(2,6-difluoro-3,5-dimethoxyphenyl)-1-hydroxyethyl)furo[2,3-c]pyridin-5-yl)amino)-5-(4-ethylpiperazin-1-yl)phenyl)acrylamide] | > 10000 | 100 to 1000 | 
C=CC(=O)Nc1cn(C)nc1Nc1cc2cc(C(O)c3c(F)c(OC)cc(OC)c3F)oc2cn1 (racemic) [Example 10, (±)-N-(3-((2-((2,6-difluoro-3,5-dimethoxyphenyl)(hydroxy)methyl)furo[2,3-c]pyridin-5-yl)amino)-1-methyl-1H-pyrazol-4-yl)acrylamide] | > 3300 | 100 to 1000 | 
C=CC(=O)N[C@H]1CCOC[C@H]1Nc1cc2cc(C(O)c3c(F)c(OC)cc(OC)c3F)oc2cn1 (mixture of isomers) [Example 14, (±)N-((3S,4S)-3-((2-((2,6-difluoro-3,5-dimethoxyphenyl)(hydroxy)methyl)furo[2,3-c]pyridin-5-yl)amino)tetrahydro-2H-pyran-4-yl)acrylamide] | > 10000 | 100 to 1000 | 
C=CC(=O)Nc1cccc(C)c1Nc1cc2cc(C(O)c3c(F)c(OC)cc(OC)c3F)sc2cn1 (racemic) [Example 28, (±)-N-(2-((2-((2,6-difluoro-3,5-dimethoxyphenyl)(hydroxy)methyl)thieno[2,3-c]pyridin-5-yl)amino)-3-methylphenyl)acrylamide] | > 10000 | < 100 | 
C=CC(=O)Nc1cccc(Cl)c1Nc1cc2cc(C(O)c3c(F)c(OC)cc(OC)c3F)oc2cn1 (racemic) [Example 29, (±)-N-(3-chloro-2-((2-((2,6-difluoro-3,5-dimethoxyphenyl)(hydroxy)methyl)furo[2,3-c]pyridin-5-yl)amino)phenyl)acrylamide] | > 10000 | < 100 | 
C=CC(=O)Nc1cccc(C(F)(F)F)c1Nc1cc2cc(C(O)c3c(F)c(OC)cc(OC)c3F)oc2cn1 (racemic) [Example 30, (±)-N-(2-((2-((2,6-difluoro-3,5-dimethoxyphenyl)(hydroxy)methyl)furo[2,3-c]pyridin-5-yl)amino)-3-(trifluoromethyl)phenyl)acrylamide] | > 10000 | 100 to 1000 | 
C=CC(=O)Nc1cc(N2CCN(CC)CC2)ccc1Nc1ncc2oc(C(O)c3c(F)c(OC)cc(OC)c3F)cc2n1 (racemic) [Example 31, (±)-N-(2-((6-((2,6-difluoro-3 ,5-dimethoxyphenyl)(hydroxy)methyl)furo[3,2-d]pyrimidin-2-yl)amino)-5-(4-ethylpiperazin-1-yl)phenyl)acrylamide] |  | < 100 | 1000 to 10000
C=CC(=O)Nc1cc(N2CCN(CC)CC2)ccc1Nc1cc2cc(C(O)c3c(F)c(OC)cc(OC)c3F)oc2cn1 (single isomer, unassigned) [Example 13A, N-(2-((2-((2,6-difluoro-3,5-dimethoxyphenyl)(hydroxy)methyl)furo[2,3-c]pyridin-5-yl)amino)-5-(4-ethylpiperazin-1-yl)phenyl)acrylamide] | > 10000 | < 100 | 
C=CC(=O)Nc1cc(N2CCN(CC)CC2)ccc1Nc1cc2cc(C(O)c3c(F)c(OC)cc(OC)c3F)oc2cn1 (single isomer, unassigned) [Example 13B, N-(2-((2-((2,6-difluoro-3,5-dimethoxyphenyl)(hydroxy)methyl)furo[2,3-c]pyridin-5-yl)amino)-5-(4-ethylpiperazin-1-yl)phenyl)acrylamide] | > 10000 |  | 
C=CC(=O)Nc1cc(N2CCN(CC)CC2)ccc1Nc1ccc2c(ccn2Cc2c(F)c(OC)cc(OC)c2F)n1 [Example 1, N-(2-((1-(2,6-difluoro-3,5-dimethoxybenzyl)-1H-pyrrolo[3,2-b]pyridin-5-yl)amino)-5-(4-ethylpiperazin-1-yl)phenyl)acrylamide] | > 3300 | 100 to 1000 | 
C=CC(=O)Nc1cc(N2CCN(CC)CC2)ccc1Nc1cc2cc(C(=O)c3c(F)c(OC)cc(OC)c3F)oc2cn1 [Example 3, N-(2-((2-(2,6-difluoro-3,5-dimethoxybenzoyl)furo[2,3-c]pyridin-5-yl)amino)-5-(4-ethylpiperazin-1-yl)phenyl)acrylamide] | > 10000 | < 100 | 
C=CC(=O)Nc1cc(N2CCN(CC)CC2)ccc1Nc1cc2cc(C(F)(F)c3c(F)c(OC)cc(OC)c3F)oc2cn1 [Example 8, N-(2-((2-((2,6-difluoro-3,5-dimethoxyphenyl)difluoromethyl)furo[2,3-c]pyridin-5-yl)amino)-5-(4-ethylpiperazin-1-yl)phenyl)acrylamide] | > 10000 | 100 to 1000 | 
C=CC(=O)Nc1cc(N2CCN(CC)CC2)ccc1Nc1cc2cc(C(=O)c3cc(OC)cc(OC)c3)oc2cn1 [Example 11, N-(2-((2-(3,5-dimethoxybenzoyl)furo[2,3-c]pyridin-5-yl)amino)-5-(4-ethylpiperazin-1-yl)phenyl)acrylamide] |  | 100 to 1000 | 1000 to 10000
C=CC(=O)N[C@H]1CCOC[C@H]1Nc1cc2cc(C(=O)c3c(F)c(OC)cc(OC)c3F)oc2cn1 [Example 12, N-((3S,4S)-3-((2-(2,6-difluoro-3,5-dimethoxybenzoyl)furo[2,3-c]pyridin-5-yl)amino)tetrahydro-2H-pyran-4-yl)acrylamide] | > 10000 | 100 to 1000 | 
C=CC(=O)Nc1cc(N2CCN(CC)CC2)ccc1Nc1cc2cc(C(=O)c3c(F)c(OC)cc(OC)c3F)sc2cn1 [Example 16, N-(2-((2-(2,6-difluoro-3,5-dimethoxybenzoyl)thieno[2,3-c]pyridin-5-yl)amino)-5-(4-ethylpiperazin-1-yl)phenyl)acrylamide] |  | < 100 | 1000 to 10000
C=CC(=O)Nc1cccc(C)c1Nc1cc2cc(C(=O)c3c(F)c(OC)cc(OC)c3F)oc2cn1 [Example 17, N-(2-((2-(2,6-difluoro-3,5-dimethoxybenzoyl)furo[2,3-c]pyridin-5-yl)amino)-3-methylphenyl)acrylamide] | > 10000 | < 100 | 
C=CC(=O)Nc1cc(N2CCN(CC)CC2)ccc1Nc1cc2cc(C(=O)c3c(F)c(OC)cc(OC)c3F)n(C)c2cn1 [Example 19, N-(2-((2-(2,6-difluoro-3,5-dimethoxybenzoyl)-1-methyl-1H-pyrrolo[2,3-c]pyridin-5-yl)amino)-5-(4-ethylpiperazin-1-yl)phenyl)acrylamide] |  | 100 to 1000 | 1000 to 10000
C=CC(=O)Nc1cc(N2CCN(CC)CC2)ccc1Nc1ncc2oc(C(=O)c3c(F)c(OC)cc(OC)c3F)cc2n1 [Example 20, N-(2-((6-(2,6-difluoro-3,5-dimethoxybenzoyl)furo[3,2-d]pyrimidin-2-yl)amino)-5-(4-ethylpiperazin-1-yl)phenyl)acrylamide] |  | < 100 | 1000 to 10000
C=CC(=O)Nc1cc(N2CCN(CC)CC2)ccc1Nc1cc2cc(C(=O)c3c(F)c(OC)cc(OC)c3F)[nH]c2cn1 [Example 21, N-(2-((2-(2,6-difluoro-3,5-dimethoxybenzoyl)-1H-pyrrolo[2,3-c]pyridin-5-yl)amino)-5-(4-ethylpiperazin-1-yl)phenyl)acrylamide] | > 3300 | 100 to 1000 | 
C=CC(=O)Nc1cc(N2CCN(CC)CC2)ccc1Nc1cc2c(C(=O)c3c(F)c(OC)cc(OC)c3F)c[nH]c2cn1 [Example 22, N-(2-((3-(2,6-difluoro-3,5-dimethoxybenzoyl)-1H-pyrrolo[2,3-c]pyridin-5-yl)amino)-5-(4-ethylpiperazin-1-yl)phenyl)acrylamide] |  | 100 to 1000 | 1000 to 10000
C=CC(=O)Nc1cccc(C)c1Nc1ncc2oc(C(=O)c3c(F)c(OC)cc(OC)c3F)cc2n1 [Example 23, N-(2-((6-(2,6-difluoro-3,5-dimethoxybenzoyl)furo[3,2-d]pyrimidin-2-yl)amino)-3-methylphenyl)acrylamide] | > 6650 | < 100 | 
C=CC(=O)Nc1cccc(C)c1Nc1cc2cc(C(=O)c3c(F)c(OC)cc(OC)c3F)sc2cn1 [Example 24, N-(2-((2-(2,6-difluoro-3,5-dimethoxybenzoyl)thieno[2,3-c]pyridin-5-yl)amino)-3-methylphenyl)acrylamide] | > 6650 | < 100 | 
C=CC(=O)Nc1cccc(C(F)(F)F)c1Nc1cc2cc(C(=O)c3c(F)c(OC)cc(OC)c3F)oc2cn1 [Example 25, N-(2-((2-(2,6-difluoro-3,5-dimethoxybenzoyl)furo[2,3-c]pyridin-5-yl)amino)-3-(trifluoromethyl)phenyl)acrylamide] | > 3300 | 100 to 1000 | 
C=CC(=O)Nc1cccc(Cl)c1Nc1cc2cc(C(=O)c3c(F)c(OC)cc(OC)c3F)oc2cn1 [Example 26, N-(3-chloro-2-((2-(2,6-difluoro-3,5-dimethoxybenzoyl)furo[2,3-c]pyridin-5-yl)amino)phenyl)acrylamide] | > 5100 | < 100 | 
